Patent publication EP1149092B1, “4- AND 5-ALKYNYLOXINDOLES AND 4- AND 5-ALKENYLOXINDOLES” (F. HOFFMANN-LA ROCHE AG, priority 1998, dated 2000)

Tests used:
MMP-3 = test: MG-63 Cell-Based Assay, MMP-3 release after IL-1β stimulation (ELISA); conditions: Homo sapiens, MG63 cells, IL-1β stimulated, 24 hours with compound, read-out: IC50 (µM) in MG63 Cells MMP3
Text: (§1) The MG63 cell line, a human osteosarcoma cell line, was purchased from American Type Culture Collection (ATCC; Rockville, MD) and grown in the medium recommended by ATCC. When stimulated with human IL-1β , MG63 cells release matrix metalloproteinase 3 (MMP-3), an AP-1 dependent inflammatory mediator and IL-6, a NF-κB-dependent mediator. In this assay the ability of a test compound to block MMP-3 expression and not block IL-6 expression is an indication that the compound is a selective inhibitor of the AP-1 transcription pathway.
(§2) On day 1 the cells were plated at 2.5X10^4 cells/well in 96 well plates. After 24 hours, dexamethasone (the assay control) (Sigma, St. Louis, MO) and the test compounds were diluted to appropriate concentrations and added to the MG63 cells. The cells were incubated with the compounds for 24 hours after which the supernatants were removed and analyzed by ELISA.
(§3) In the ELISA, 96 well plates were coated with antibody to MMP-3 or IL-6. Supernatants were added to the coated plates and any antigen (MMP-3 or IL-6) in the supernatant bound to the antibody coated on the plates. The plates were then washed with PBS containing 0.05% Tween 20 (Sigma, St. Louis, MO) and the biotinylated secondary antibody was added. This secondary antibody binds to the already bound antigen creating a "sandwich effect". Plates were washed as described above and horseradish peroxidase (HRP)-streptavidin conjugate (Sigma, St. Louis, MO) was added to the plates. HRP-streptavidin bound to the biotin-antibody conjugate. The plates were washed and TMB substrate (Kirkegaard and Perry Labs, Gaithersburg, MD) was added to the wells. This substrate changes color in the presence of HRP-streptavidin. The intensity of the color (measured at 450 nm) is proportional to the amount of MMP-3 or IL-6 produced by the MG63 cells upon exposure to IL-1β and the test compounds. Optical density values were converted to concentration (pg/ml or Units/ml) based on a standard curve included in the assay. IC50 values for each test compound were determined from the linear regression of a plot of the logarithm of the concentration of compound versus amount of MMP-3 or IL-6 secreted. (The MMP-3 antibodies were prepared in-house using standard hybridoma technology and the IL-6 antibodies were obtained from either Genzyme, Cambridge, MA or Pharmingen, San Diego, CA.).

rat SAPK (isoform β) = rat SAPK (isoform β) (Rattus norvegicus, UniProt P49187); test: SAPK FlashPlate Assay (inhibition of cJun phosphorylation); assay type: biochemical; conditions: GST-cJun substrate, 30 minutes at 37 °C
Chain of rat SAPK (isoform β) (P49187 whole entry, canonical isoform): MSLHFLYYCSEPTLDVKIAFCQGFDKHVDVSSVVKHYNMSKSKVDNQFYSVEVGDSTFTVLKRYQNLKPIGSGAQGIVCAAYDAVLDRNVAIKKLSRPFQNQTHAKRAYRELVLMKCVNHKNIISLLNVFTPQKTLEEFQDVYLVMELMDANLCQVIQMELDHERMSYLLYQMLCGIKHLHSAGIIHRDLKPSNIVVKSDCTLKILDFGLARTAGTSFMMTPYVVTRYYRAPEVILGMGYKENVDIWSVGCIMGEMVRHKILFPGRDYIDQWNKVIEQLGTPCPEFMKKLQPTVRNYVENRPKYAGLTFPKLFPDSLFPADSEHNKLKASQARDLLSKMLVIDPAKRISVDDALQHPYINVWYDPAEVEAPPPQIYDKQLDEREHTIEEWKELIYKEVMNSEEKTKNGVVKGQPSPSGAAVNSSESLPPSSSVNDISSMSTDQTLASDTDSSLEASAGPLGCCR
Description: "IC50" refers to the concentration of a particular 4- or 5-alkynyloxindole or 4-or 5-alkenyloxindole required to inhibit 50% of cJun phosphorylation, which is a measure of inhibition of SAPK activity. IC50 can be measured, inter alia, using the assay described herein in Example 102.
Human JNK is highly homologous to rat SAPK. To measure the inhibitory activity of test compounds, the compounds were tested in the rat SAPK assay.
For the SAPK assay, purified GST-cJun (a chimeric protein containing cJun, a natural substrate of JNK) was coated on 96 well FlashPlates (New England Nuclear, Boston, MA). Purified rat SAPK (isoform β, Kyriakis et al. supra) was preincubated with preparations containing MEKK-1 and MKK4 for 30 minutes at 37 °C in assay buffer containing 25 mM HEPES, pH 7.5, 150 mM NaCl, 20 mM MgCl2, 2 mM DTT, 0.001% Tween 20, 1 µM ATP freshly added. In the preincubation step, MEKK-1 phosphorylates and activates MKK-4, which in tum phosphorylates and activates SAPK. The activated SAPK was then added to the cJun coated FlashPlates along with ^33P-ATP (0.32 µCi per reaction) and test compounds. The plates were incubated for 30 minutes at 37 °C, then washed with PBS, 0.01% Tween 20, and counted in the Topcount scintillation counter (Packard Instrument Co., Downers Grove, IL). Dilutions of compounds were tested in duplicate in each assay. The percent inhibition of cJun phosphorylation (a measure of inhibition of SAPK activity) was determined by the following formula: [formula] where "test compound" refers to the average counts per minute of the test duplicates, "nonspecific" refers to the average counts per minute when no SAPK was added, and "total" refers to the average counts per minute when no compound was added.

TNF = test: U937 Cell-Based Assay, TNF release after LPS stimulation (ELISA); conditions: Homo sapiens, U-937; U937 cells, PMA then LPS stimulated, 24 hours
Description: (§4) The U937 cells, a human monocyte/macrophage cell line, was obtained from the ATTC and grown in the recommended medium. These cells when stimulated with lipopolysaccharide (LPS) release TNF, another inflammatory mediator implicated in the JNK pathway (Swantek et al., supra) and IL-6. In this assay the ability of a test compound to block TNF expression is evaluated.
(§5) The assay is very similar to the MG63 cell based assay except for the following modifications. The U937 cells were suspension cells but when stimulated with phorbol myristate acetate (PMA) (Sigma, St. Louis, MO) they become adherent. After PMA stimulation the cells were washed in cell culture medium and plated at 1X10^5 cells/well in 96 well plates. The following day the test compounds and dexamethasone control (Sigma, St. Louis, MO) were added to the cells for 1 hour of preincubation. Then the cells were stimulated with LPS (Sigma, St. Louis, MO). After an additional 24 hours of incubation the supematants were removed and assayed for TNF-α and IL-6 by ELISA. The IL-6 ELISA was run as described previously for the MG63 assay. The TNF ELISA was run using a kit supplied by Genzyme (Cambridge, MA).

IL-6 [1] = test: MG-63 Cell-Based Assay, IL-6 release after IL-1β stimulation (ELISA); conditions: Homo sapiens, MG63 cells, IL-1β stimulated, 24 hours with compound, read-out: IC50 (µM) in MG63 Cells IL6
Text: as §1, §2, §3

IL-6 [2] = test: U937 Cell-Based Assay, IL-6 release after LPS stimulation (ELISA); conditions: Homo sapiens, U-937; U937 cells, PMA then LPS stimulated, 24 hours; read-out: IC50 (µM) in U937 Cells IL6
Description: as §4, §5

Compound	IC50 (MMP-3)	IC50 (rat SAPK (isoform β))	IC50 (TNF)	IC50 (IL-6 [1])	IC50 (IL-6 [2])
COc1cc[nH]c1/C=C1\C(=O)Nc2cccc(C#CC(O)c3ccsc3)c21 (racemic) [BB, rac-(Z)-1,3-Dihydro-4-[3-hydroxy-3-(thiophen-3-yl)-1-propynyl]-3-[(3-methoxy-1H-pyrrol-2-yl)methylene]-2H-indol-2-one]	< 12.5 µM	< 1 µM	< 8 µM	< 20 µM	< 20 µM
COc1cc[nH]c1/C=C1\C(=O)Nc2cccc(C#CC(O)c3ccc4c(c3)OCO4)c21 (racemic) [N, rac-(Z)-4-[3-(1,3-benzodioxol-5-yl)-3-hydroxy-1-propynyl]-1,3-dihydro-3-[(3-methoxy-1H-pyrrol-2-yl)methylene]-2H-indol-2-one]	< 12.5 µM	< 1 µM	< 8 µM	< 20 µM	< 20 µM
COc1cc(C(O)C#Cc2cccc3c2/C(=C/c2[nH]ccc2OC)C(=O)N3)ccc1O (racemic) [O, rac-(Z)-1,3-Dihydro-4-[3-hydroxy-3-(4-hydroxy-3-methoxyphenyl)-1-propynyl]-3-[(3-methoxy-1H-pyrrol-2-yl)methylene]-2H-indol-2-one]	< 12.5 µM		< 8 µM	< 20 µM	< 20 µM
COc1cc[nH]c1/C=C1\C(=O)Nc2cccc(C#CC(O)c3ccc(N(C)C)cc3)c21 (racemic) [R, rac-(Z)-1,3-Dihydro-4-[3-(4-dimethylaminophenyl)-3-hydroxy-1-propynyl]-3-[(3-methoxy-1H-pyrrol-2-yl)methylene]-2H-indol-2-one]	< 12.5 µM	< 1 µM	< 8 µM	< 20 µM	20 µM
